Reference: article PMC2131780, “A Tale of Switched Functions: From Cyclooxygenase Inhibition to M-Channel Modulation in New Diphenylamine Derivatives” (PLoS ONE, 2007)

Legend:
[1] = target: T1, Kv7.2/3 K+ channels (M-channels) (Homo sapiens, UniProt O43525+O43526); assay: Whole-cell patch-clamp of recombinant Kv7.2/3 channels in CHO cells; assay type: cell-based; settings: for V50 of Kv7.2/3 activation: n = 5; for fold increase in Kv7.2/3 current amplitude: step −90 to −50 mV
T1 construct: expressed in transfected cells; host or cells: CHO cells
T1 sequence (O43526 whole entry): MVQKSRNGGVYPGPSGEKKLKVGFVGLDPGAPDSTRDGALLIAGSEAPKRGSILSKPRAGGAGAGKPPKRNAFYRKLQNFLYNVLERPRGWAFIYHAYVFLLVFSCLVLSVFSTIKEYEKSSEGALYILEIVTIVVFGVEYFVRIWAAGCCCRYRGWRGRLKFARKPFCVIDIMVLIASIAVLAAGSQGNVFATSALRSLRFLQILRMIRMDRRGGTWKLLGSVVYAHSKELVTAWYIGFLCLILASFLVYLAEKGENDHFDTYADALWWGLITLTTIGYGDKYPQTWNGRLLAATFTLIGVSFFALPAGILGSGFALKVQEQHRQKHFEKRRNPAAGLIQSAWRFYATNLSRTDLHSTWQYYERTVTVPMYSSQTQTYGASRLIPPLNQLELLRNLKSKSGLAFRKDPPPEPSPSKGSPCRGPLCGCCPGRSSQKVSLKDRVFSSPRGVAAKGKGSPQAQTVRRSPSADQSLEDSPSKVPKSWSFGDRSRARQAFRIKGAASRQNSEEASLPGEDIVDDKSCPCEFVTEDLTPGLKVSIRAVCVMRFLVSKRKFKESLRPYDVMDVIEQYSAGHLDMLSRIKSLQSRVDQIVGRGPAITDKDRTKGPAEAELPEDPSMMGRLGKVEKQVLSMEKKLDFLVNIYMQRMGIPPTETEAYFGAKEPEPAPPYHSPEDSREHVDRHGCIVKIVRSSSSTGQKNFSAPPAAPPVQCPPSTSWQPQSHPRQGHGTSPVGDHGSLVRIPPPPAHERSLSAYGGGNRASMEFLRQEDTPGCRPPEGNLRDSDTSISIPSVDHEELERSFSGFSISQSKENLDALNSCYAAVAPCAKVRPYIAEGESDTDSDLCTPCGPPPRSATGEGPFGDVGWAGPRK
T1 sequence (O43525 whole entry): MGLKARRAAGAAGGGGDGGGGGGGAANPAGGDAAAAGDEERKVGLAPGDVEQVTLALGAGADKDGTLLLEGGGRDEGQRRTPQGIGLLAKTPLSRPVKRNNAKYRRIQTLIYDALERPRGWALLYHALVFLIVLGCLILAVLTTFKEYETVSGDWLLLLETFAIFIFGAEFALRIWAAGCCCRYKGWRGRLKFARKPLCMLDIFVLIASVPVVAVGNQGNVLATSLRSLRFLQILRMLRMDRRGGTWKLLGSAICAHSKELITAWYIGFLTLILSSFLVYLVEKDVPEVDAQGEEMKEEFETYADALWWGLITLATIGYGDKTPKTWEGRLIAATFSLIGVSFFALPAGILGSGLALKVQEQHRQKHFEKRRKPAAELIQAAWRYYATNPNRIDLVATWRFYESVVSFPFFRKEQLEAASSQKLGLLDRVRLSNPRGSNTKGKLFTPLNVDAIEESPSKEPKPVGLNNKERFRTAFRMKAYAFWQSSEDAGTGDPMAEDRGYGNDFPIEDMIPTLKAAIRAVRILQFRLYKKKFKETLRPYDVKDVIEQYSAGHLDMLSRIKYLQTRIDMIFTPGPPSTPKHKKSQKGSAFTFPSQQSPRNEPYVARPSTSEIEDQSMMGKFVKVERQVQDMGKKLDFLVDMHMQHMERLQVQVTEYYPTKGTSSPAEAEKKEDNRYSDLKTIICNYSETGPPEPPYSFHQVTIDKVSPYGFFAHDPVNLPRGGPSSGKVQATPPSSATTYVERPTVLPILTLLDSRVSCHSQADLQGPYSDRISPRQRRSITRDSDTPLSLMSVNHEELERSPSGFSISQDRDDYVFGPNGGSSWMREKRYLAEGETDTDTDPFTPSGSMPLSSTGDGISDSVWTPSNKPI
Protocol: Chinese hamster ovary (CHO) cells were grown in Dulbecco's modified Eagle's medium (DMEM) supplemented with 2 mM glutamine, 10% fetal calf serum and antibiotics. Briefly, 40,000 cells seeded on poly-D-lysine-coated glass coverslips (13 mm diameter) in a 24-multiwell plate were transfected with pIRES-CD8 (0.5 µg) as a marker for transfection, and with Kv7.2 (0.5 µg) and Kv7.3 (0.5 µg). For electrophysiology, transfected cells were visualized approximately 40 hours following transfection, using anti-CD8 antibody-coated beads. Transfection was performed using Fugene 6 (Roche, Indianapolis IN, USA) according to the manufacturer's protocol.
Voltage-clamp recordings in CHO cells were performed, using the whole-cell configuration of the patch-clamp technique. Signals were amplified using an Axopatch 200B patch-clamp amplifier (Molecular Devices, Sunnyvale, CA), sampled at 2 kHz and filtered at 800 Hz via a 4-pole Bessel low pass filter. […] The patch pipettes were pulled from borosilicate glass (Warner Instrument Corp, USA) with a resistance of 2–5 MΩ. For K^+ current recordings in CHO cells, the intracellular pipette solution contained (in mM): 130 KCl, 1 MgCl2, 5 K2ATP, 5 EGTA, 10 HEPES, adjusted with KOH to pH 7.4 (290 mOsm). The extracellular solution contained (in mM): 140 NaCl, 4 KCl, 1.8 CaCl2, 1.2 MgCl2, 11 glucose, 5.5 HEPES, adjusted with NaOH to pH 7.4 (310 mOsm). Series resistances (3–13 MΩ) were compensated (75–90%) and periodically monitored.
Data analysis was performed using the Clampfit program (pClamp 9.2, Molecular Devices), Microsoft Excel (Microsoft) and Prism 4.0 (GraphPad). Chord conductance (G) was calculated by using the following equation: [drawing 1] where I corresponds to the current amplitude measured at the end of the pulse and Vrev, the calculated reversal potential. G was estimated at various test voltages V and then, normalized to a maximal conductance value, Gmax. Activation curves were fitted by one Boltzmann distribution: [drawing 2] where V50 is the voltage at which the current is half-activated and s is the slope factor. All data were expressed as mean±SEM. Statistically significant differences were assessed by Student's t-test. Analysis of sEPSCs and sIPSCs was done using the Clampfit program (pClamp 9.2, Molecular Devices) and included evaluation of the individual events as well as the average event amplitude and the integral of the event (total charge transfer).

[2] = system: primary hippocampal neurons (glutamate and GABA release); assay: Spontaneous and miniature post-synaptic currents in cultured hippocampal neurons; assay type: cell-based, rat
Protocol: Because of their slow activation and their lack of inactivation, M-channels could modulate neuronal activity during repetitive spike discharge and tune neurotransmitter release. Figure 8 illustrates the effect of compound 15 on synaptic transmission and transmitter release. Spontaneous excitatory and inhibitory post-synaptic currents (sEPSCs and sIPSCs) were recorded from dense cultures of primary hippocampal neurons, using the voltage-clamp configuration of the whole-cell patch-clamp technique. […] Spontaneous EPSCs were recorded at −70 mV and were pharmacologically isolated by blocking GABAA receptor-mediated inhibitory post-synaptic currents (with 10 µM bicuculline and 30 µM picrotoxin). The sEPSCs were […] mediated by the activation of AMPA receptors and to a lesser extent of NMDA receptors, as they were blocked by 10 µM NBQX and 10 µM AP-5. Thus, sEPSCs reflect the synaptic release of glutamate. Under control conditions, sEPSCs appeared as repetitive bursts whose frequency was variable, ranging from 0.3 to 2 Hz and increasing with the density of the hippocampal culture. […] Consequently, compound 15 reduced by about 50% the total charge transfer as well as the charge transfer within the bursts (Figure 8D–F).
For hippocampal neuronal cultures, Sprague-Dawley rat embryos (E18) were removed by caesarian section and their hippocampi were dissected out. […]
Spontaneous excitatory postsynaptic currents (EPSCs) were recorded in the voltage-clamp configuration of the whole-cell patch-clamp technique at a holding potential of −70 mV as previously described; the extracellular solution contained (in mM) 160 NaCl, 2.5 KCl, 10 HEPES, 10 glucose, 2 CaCl2; pH 7.3 (325 mOsm), to which 30 µM picrotoxin and 10 µM bicuculline methyl iodide were added. […] Spontaneous inhibitory postsynaptic currents (IPSCs) were recorded at a holding potential of −70 mV; the extracellular solution contained (in mM) 160 NaCl, 2.5 KCl, 10 HEPES, 10 glucose, 2 CaCl2; pH 7.3 (325 mOsm), to which 10 µM NBQX and 10 µM AP-5 were added. […]

O=C(Cc1cc([N+](=O)[O-])ccc1Nc1c(Cl)cccc1Cl)OCCO [Compound 15]
left-shift of Kv7.2/3 activation curve ([1]; 10 µM): −11 mV
V50 of Kv7.2/3 activation ([1]; 10 µM): −43.6±9.0 mV
fold increase in Kv7.2/3 current amplitude ([1]; 10 µM): 3.2 fold
activation kinetics t1/2 of Kv7.2/3 ([1]; 25 µM, at −20 mV): 0.171 ± 0.029 s
deactivation time constant τdeact of Kv7.2/3 ([1]; 25 µM, tail currents at −60 mV): 284 ± 43 ms
left-shift of Kv7.2/3 activation curve ([1]; 50 µM): −21 mV
V50 of Kv7.2/3 activation ([1]; 50 µM): −53.5±9.3 mV
fold increase in Kv7.2/3 current amplitude ([1]; 50 µM): 9.1 fold
left-shift of Kv7.2/3 activation curve ([1]; 200 µM): −31 mV
V50 of Kv7.2/3 activation ([1]; 200 µM): −63.1±2.0 mV
ΔV50 (mV), left-shift in half-activation potential ([1]; Kv7.2/3 in CHO cells): −31.0 mV
M-channels (Kv7.2/Kv7.3) effect (opener / blocker / inactive) ([1]; Kv7.2 and Kv7.3 coexpressed in CHO cells): opener
EC50 ([1]; concentration-dependent left-shift ΔV50, sigmoidal fit, read-out: M-channel opener potency EC50): 22 µM
reduction of sEPSCs total charge transfer and charge transfer within bursts ([2]; 25 µM, holding −70 mV): about 50%
inhibition at 25 µM ([2]; Rattus norvegicus, Hippocampal neuron, 25 µM, holding −70 mV, read-out: inhibition of sIPSCs frequency of spontaneous occurrence): > 98%
effect on amplitude and kinetics of miniature EPSCs and IPSCs ([2]; not shown): did not affect
